From US6737383B1, “Herbicidal oxadiazolidines” (priority 1999, dated 2004)

Experiments:
giant foxtail = assay: Test B pre/postemergence giant foxtail; format: in vivo, Setaria faberii; conditions: Preemergence
In short: (§1)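 Herbicidal effect was estimated by eye on a ten-point control scale after plants spent twelve to sixteen days in a greenhouse following soil or foliar treatment. Foliar sprays targeted plants at one to four leaves; all doses were formulated in a non-phytotoxic solvent with surfactant.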

morningglory = assay: Test B pre/postemergence morningglory; format: in vivo, Ipomoea hederacea; conditions: Preemergence
In short: as §1

velvetleaf = assay: Test B pre/postemergence velvetleaf; format: in vivo, Abutilon theophrasti; conditions: Preemergence
In short: as §1

crabgrass = assay: Test B pre/postemergence crabgrass; format: in vivo, Digitaria sanguinalis; conditions: Preemergence
In short: as §1

duck salad = assay: Test B flood test duck salad; format: in vivo, Heteranthera limosa
In short: (§2)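 Flood test on plants grown to the 2-leaf stage; treated plants kept in greenhouse twelve to sixteen days, then visually rated against controls on a 0 (no effect) to 10 (complete control) scale.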

sugar beet = assay: Test B pre/postemergence sugar beet; format: in vivo, Beta vulgaris; conditions: Preemergence
In short: as §1

rape = assay: Test B pre/postemergence rape; format: in vivo, Brassica napus; conditions: Preemergence
In short: as §1

corn = assay: Test B pre/postemergence corn; format: in vivo, Zea mays; conditions: Preemergence
In short: as §1

soybean = assay: Test B pre/postemergence soybean; format: in vivo, Glycine max; conditions: Preemergence
In short: as §1

cocklebur = assay: Test B pre/postemergence cocklebur; format: in vivo, Xanthium strumarium; conditions: Preemergence
In short: as §1

wheat = assay: Test B pre/postemergence wheat; format: in vivo, Triticum aestivum; conditions: Preemergence
In short: as §1

purple nutsedge = assay: Test B pre/postemergence purple nutsedge; format: in vivo, Cyperus rotundus; conditions: Preemergence
In short: as §1

surinam grass = assay: Test B pre/postemergence surinam grass; format: in vivo, Brachiaria decumbens; conditions: Preemergence
In short: as §1

bedstraw = assay: Test B pre/postemergence bedstraw; format: in vivo, Galium aparine; conditions: Preemergence
In short: as §1

bamyardgrass = assay: Test B flood test barnyardgrass; format: in vivo, Echinochloa crus-galli
In short: as §2

pigweed = assay: Test B pre/postemergence pigweed; format: in vivo, Amaranthus retroflexus; conditions: Preemergence
In short: as §1

smallflower flatsedge = assay: Test B flood test smallflower flatsedge; format: in vivo, Cyperus difformis
In short: as §2

wild oat = assay: Test B pre/postemergence wild oat; format: in vivo, Avena fatua; conditions: Preemergence
In short: as §1

blackgrass = assay: Test B pre/postemergence blackgrass; format: in vivo, Alopecurus myosuroides; conditions: Preemergence
In short: as §1

rice = assay: Test B flood test rice; format: in vivo, Oryza sativa
In short: as §2

[1] = Rate 125 g/ha, scale of 0 to 10 where 0 is no effect and 10 is complete control
[2] = Rate 250 g/ha, scale 0 (no effect) to 10 (complete control)
[3] = Rate 500 g/ha, scale 0 to 10 (0 no effect, 10 complete control)
[4] = Rate 1000 g/ha, scale 0 to 10 (0 no effect, 10 complete control)
[5] = Pre-emergence, Rate 62 g/ha, scale 0 to 10, 0 is no effect, 10 is complete control
[6] = Rate 125 g/ha, Pre-emergence section (flood test species), scale 0 to 10, 0 no effect, 10 complete control
[7] = Rate 250 g/ha, Pre-emergence (flood test species), scale 0 to 10, 0 is no effect, 10 is complete control
[8] = Rate 500 g/ha, Pre-emergence section of Table B, 0 to 10 scale (0 no effect, 10 complete control)
[9] = Rate 62 g/ha, scale of 0 to 10 where 0 is no effect and 10 is complete control
[10] = Rate 500 g/ha, scale of 0 to 10 where 0 is no effect and 10 is complete control

COC(=O)C(c1ccccc1)n1c(=O)on(C(=O)N(c2ccc(Cl)cc2)C(C)C)c1=O (stereo not drawn) [Compound 724]
Plant response rating, Giant foxtail (giant foxtail; [1]): 0 | Giant foxtail plant response rating (giant foxtail; [2]): 7 | Giant foxtail plant response rating (giant foxtail; [3]): 9 | Plant response rating, Giant foxtail (giant foxtail; [4]): 10 | Plant response rating, Morningglory (morningglory; [1]): 0 | Morningglory plant response rating (morningglory; [2]): 0 | Morningglory plant response rating (morningglory; [3]): 0 | Plant response rating, Morningglory (morningglory; [4]): 0 | Plant response rating, Velvetleaf (velvetleaf; [1]): 0 | Velvetleaf plant response rating (velvetleaf; [2]): 0 | Velvetleaf plant response rating (velvetleaf; [3]): 0 | Plant response rating, Velvetleaf (velvetleaf; [4]): 0 | Plant response rating, Crabgrass (crabgrass; [1]): 3 | Crabgrass plant response rating (crabgrass; [2]): 7 | Crabgrass plant response rating (crabgrass; [3]): 7 | Plant response rating, Crabgrass (crabgrass; [4]): 9 | Ducksalad plant response rating (duck salad; [5]): 0 | Ducksalad plant response rating (duck salad; [6]): 0 | Ducksalad plant response rating (duck salad; [7]): 0 | Ducksalad plant response rating (duck salad; [8]): 0 | Plant response rating, Sugarbeets (sugar beet; [1]): 0 | Sugarbeets plant response rating (sugar beet; [2]): 0 | Sugarbeets plant response rating (sugar beet; [3]): 0 | Plant response rating, Sugarbeets (sugar beet; [4]): 0 | Plant response rating, Rape (rape; [1]): 0 | Rape plant response rating (rape; [2]): 0 | Rape plant response rating (rape; [3]): 0 | Plant response rating, Rape (rape; [4]): 0 | Plant response rating, Corn (corn; [1]): 0 | Corn plant response rating (corn; [2]): 0 | Corn plant response rating (corn; [3]): 0 | Plant response rating, Corn (corn; [4]): 0 | Plant response rating, Soybean (soybean; [1]): 0 | Soybean plant response rating (soybean; [2]): 0 | Soybean plant response rating (soybean; [3]): 0 | Plant response rating, Soybean (soybean; [4]): 0 | Plant response rating, Cocklebur (cocklebur; [1]): 0 | Cocklebur plant response rating (cocklebur; [2]): 0 | Cocklebur plant response rating (cocklebur; [3]): 0 | Plant response rating, Cocklebur (cocklebur; [4]): 0 | Plant response rating, Wheat (wheat; [1]): 0 | Wheat plant response rating (wheat; [2]): 0 | Wheat plant response rating (wheat; [3]): 0 | Plant response rating, Wheat (wheat; [4]): 0 | Plant response rating, Nutsedge (purple nutsedge; [1]): 0 | Nutsedge plant response rating (purple nutsedge; [2]): 0 | Nutsedge plant response rating (purple nutsedge; [3]): 0 | Plant response rating, Nutsedge (purple nutsedge; [4]): 0 | Plant response rating, B. signalgrass (surinam grass; [1]): 0 | B. signalgrass plant response rating (surinam grass; [2]): 0 | B. signalgrass plant response rating (surinam grass; [3]): 0 | Plant response rating, B. signalgrass (surinam grass; [4]): 0 | Plant response rating, Bedstraw (bedstraw; [1]): 0 | Bedstraw plant response rating (bedstraw; [2]): 0 | Bedstraw plant response rating (bedstraw; [3]): 0 | Plant response rating, Bedstraw (bedstraw; [4]): 0 | Barnyardgrass plant response rating (bamyardgrass; [5]): 0 | Barnyardgrass plant response rating (bamyardgrass; [6]): 0 | Barnyardgrass plant response rating (bamyardgrass; [7]): 0 | Barnyardgrass plant response rating (bamyardgrass; [8]): 0 | Plant response rating, Redroot pigweed (pigweed; [1]): 0 | Redroot pigweed plant response rating (pigweed; [2]): 0 | Redroot pigweed plant response rating (pigweed; [3]): 0 | Plant response rating, Redroot pigweed (pigweed; [4]): 3 | S. Flatsedge plant response rating (smallflower flatsedge; [5]): 0 | S. Flatsedge plant response rating (smallflower flatsedge; [6]): 0 | S. Flatsedge plant response rating (smallflower flatsedge; [7]): 0 | S. Flatsedge plant response rating (smallflower flatsedge; [8]): 0 | Plant response rating, Wild oats (wild oat; [1]): 0 | Wild oats plant response rating (wild oat; [2]): 0 | Wild oats plant response rating (wild oat; [3]): 0 | Plant response rating, Wild oats (wild oat; [4]): 0 | Plant response rating, Blackgrass (blackgrass; [1]): 0 | Blackgrass plant response rating (blackgrass; [2]): 0 | Blackgrass plant response rating (blackgrass; [3]): 0 | Plant response rating, Blackgrass (blackgrass; [4]): 2 | Rice plant response rating (rice; [5]): 0 | Rice plant response rating (rice; [6]): 0 | Rice plant response rating (rice; [7]): 0 | Rice plant response rating (rice; [8]): 0

CC(C)N(C(=O)n1oc(=O)n(CC2CCCCO2)c1=O)c1ccc(F)cc1F (stereo not drawn) [Compound 715]
Giant foxtail plant response rating (giant foxtail; [9]): 10 | Plant response rating, Giant foxtail (giant foxtail; [1]): 10 | Giant foxtail plant response rating (giant foxtail; [2]): 10 | Morningglory plant response rating (morningglory; [9]): 0 | Plant response rating, Morningglory (morningglory; [1]): 1 | Morningglory plant response rating (morningglory; [2]): 2 | Velvetleaf plant response rating (velvetleaf; [9]): 0 | Plant response rating, Velvetleaf (velvetleaf; [1]): 5 | Velvetleaf plant response rating (velvetleaf; [2]): 6 | Crabgrass plant response rating (crabgrass; [9]): 9 | Plant response rating, Crabgrass (crabgrass; [1]): 9 | Crabgrass plant response rating (crabgrass; [2]): 10 | Ducksalad plant response rating (duck salad; [5]): 0 | Ducksalad plant response rating (duck salad; [6]): 0 | Ducksalad plant response rating (duck salad; [7]): 0 | Ducksalad plant response rating (duck salad; [8]): 0 | Sugarbeets plant response rating (sugar beet; [9]): 4 | Plant response rating, Sugarbeets (sugar beet; [1]): 5 | Sugarbeets plant response rating (sugar beet; [2]): 7 | Rape plant response rating (rape; [9]): 2 | Plant response rating, Rape (rape; [1]): 8 | Rape plant response rating (rape; [2]): 8 | Corn plant response rating (corn; [9]): 0 | Plant response rating, Corn (corn; [1]): 0 | Corn plant response rating (corn; [2]): 2 | Soybean plant response rating (soybean; [9]): 0 | Plant response rating, Soybean (soybean; [1]): 0 | Soybean plant response rating (soybean; [2]): 0 | Cocklebur plant response rating (cocklebur; [9]): 0 | Plant response rating, Cocklebur (cocklebur; [1]): 0 | Cocklebur plant response rating (cocklebur; [2]): 0 | Plant response rating, Cocklebur (cocklebur; [10]): 0 | Wheat plant response rating (wheat; [9]): 0 | Plant response rating, Wheat (wheat; [1]): 0 | Wheat plant response rating (wheat; [2]): 3 | Nutsedge plant response rating (purple nutsedge; [9]): 0 | Plant response rating, Nutsedge (purple nutsedge; [1]): 0 | Nutsedge plant response rating (purple nutsedge; [2]): 0 | B. signalgrass plant response rating (surinam grass; [9]): 8 | Plant response rating, B. signalgrass (surinam grass; [1]): 8 | B. signalgrass plant response rating (surinam grass; [2]): 9 | Plant response rating, B. signalgrass (surinam grass; [10]): 10 | Bedstraw plant response rating (bedstraw; [9]): 0 | Plant response rating, Bedstraw (bedstraw; [1]): 0 | Bedstraw plant response rating (bedstraw; [2]): 0 | Barnyardgrass plant response rating (bamyardgrass; [5]): 0 | Barnyardgrass plant response rating (bamyardgrass; [6]): 0 | Barnyardgrass plant response rating (bamyardgrass; [7]): 0 | Barnyardgrass plant response rating (bamyardgrass; [8]): 0 | Redroot pigweed plant response rating (pigweed; [9]): 8 | Plant response rating, Redroot pigweed (pigweed; [1]): 9 | Redroot pigweed plant response rating (pigweed; [2]): 10 | S. Flatsedge plant response rating (smallflower flatsedge; [5]): 0 | S. Flatsedge plant response rating (smallflower flatsedge; [6]): 0 | S. Flatsedge plant response rating (smallflower flatsedge; [7]): 0 | S. Flatsedge plant response rating (smallflower flatsedge; [8]): 0 | Wild oats plant response rating (wild oat; [9]): 9 | Plant response rating, Wild oats (wild oat; [1]): 9 | Wild oats plant response rating (wild oat; [2]): 9 | Blackgrass plant response rating (blackgrass; [9]): 9 | Plant response rating, Blackgrass (blackgrass; [1]): 9 | Blackgrass plant response rating (blackgrass; [2]): 9 | Plant response rating, Blackgrass (blackgrass; [10]): 10 | Rice plant response rating (rice; [5]): 0 | Rice plant response rating (rice; [6]): 0 | Rice plant response rating (rice; [7]): 0 | Rice plant response rating (rice; [8]): 0
